Data as given in US12384753B2, “17-beta-hydroxysteroid dehydrogenase type 13 inhibitors and methods of use thereof” (Enanta Pharmaceuticals, Inc., priority 2021, dated 2025).

Target: Recombinant human HSD17B13 (Homo sapiens (Human), UniProt Q7Z5P4)
Assay: HSD17B13 rapid-fire mass spectrometry assay (RF/MS assay)
Format: biochemical
Settings: inhibition of HSD17B13; LTB4 10 μM, NAD+ 0.5 mM, RT 3 h; IC50 ranges A-E
Procedure, shortened: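 Product 12-oxo-LTB4 and substrate LTB4 quantified by RapidFire triple-quad MS in negative mode, giving percent conversion. Reaction: 80 nM recombinant hHSD17B13, 10 μM LTB4, 0.5 mM NAD+, compound up to 100 μM, pH 7.5, RT, 3 h. Variable-slope fit gave IC50; run in duplicate.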

Recombinant human HSD17B13, sequence (Q7Z5P4 20-300): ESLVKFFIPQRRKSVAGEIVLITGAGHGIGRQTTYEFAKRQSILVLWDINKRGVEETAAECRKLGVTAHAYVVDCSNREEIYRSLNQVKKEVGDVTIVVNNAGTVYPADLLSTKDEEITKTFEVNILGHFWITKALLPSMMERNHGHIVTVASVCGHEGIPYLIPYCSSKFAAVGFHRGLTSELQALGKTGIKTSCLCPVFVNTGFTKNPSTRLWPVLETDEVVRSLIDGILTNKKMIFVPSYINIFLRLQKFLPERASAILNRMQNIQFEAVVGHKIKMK

Row | Structure (SMILES) | IC50 [nM]
1 | COc1cc(C(=O)O)ccc1NS(=O)(=O)c1ccc(-c2ccc(C3=CCC(C)(C)CC3)cc2)s1 [Example 429, 4-((5-(4′,4′-dimethyl-2′,3′,4′,5′-tetrahydro-[1,1′-biphenyl]-4-yl)thiophene)-2-sulfonamido)-3-methoxybenzoic acid] | 100 to 500
2 | COc1cc(C(=O)O)ccc1NS(=O)(=O)c1ccc(-c2ccc(C3(O)CCC(C)(C)CC3)cc2)s1 [Example 430, 4-((5-(4-(1-hydroxy-4,4-dimethylcyclohexyl)phenyl)thiophene)-2-sulfonamido)-3-methoxybenzoic acid] | 100 to 500
3 | COc1cc(C(=O)O)ccc1NS(=O)(=O)c1cncc(-c2ccc(C3CCCCC3)cc2)c1 [Example 433, 4-((5-(4-cyclohexylphenyl)pyridine)-3-sulfonamido)-3-methoxybenzoic acid] | 500 to 1000
4 | COc1cc(C(=O)O)ccc1NS(=O)(=O)c1cncc(C#Cc2cccc(OC(F)(F)F)c2)c1 [Example 434, 3-methoxy-4-((5-((3-(trifluoromethoxy)phenyl)ethynyl)pyridine)-3-sulfonamido)benzoic acid] | 500 to 1000
5 | COc1cc(C(=O)O)ccc1NS(=O)(=O)c1cc(-c2ccc(C3CCCCC3)cc2)ccc1F [Example 435] | 500 to 1000
6 | COc1cc(C(=O)O)ccc1NS(=O)(=O)c1cccc(-c2ccc(C3CCCCC3)cc2)c1F [Example 436] | < 100
7 | COc1cc(C(=O)O)ccc1NS(=O)(=O)c1ccc(F)c(-c2ccc(C3CCCCC3)cc2)c1 [Example 437] | 100 to 500
8 | COc1cc(C(=O)O)ccc1NS(=O)(=O)c1cc(F)cc(-c2ccc(C3CCCCC3)cc2)c1 [Example 438] | < 100
9 | COC/C=C/c1ccc(-c2ncc(S(=O)(=O)Nc3ccc(C(=O)O)cc3OC)s2)cc1 [Example 449, (E)-3-methoxy-4-((2-(4-(3-methoxyprop-1-en-1-yl)phenyl)thiazole)-5-sulfonamido)benzoic acid] | 100 to 500
10 | C=C(c1ccc(-c2ncc(S(=O)(=O)Nc3ccc(C(=O)O)cc3OC)s2)cc1)C1CC1 [Example 450] | < 100
11 | COc1cc(C(=O)O)ccc1NS(=O)(=O)c1cnc(-c2ccc(C3=CCC(c4ccccc4)CC3)cc2)s1 (stereo not shown) [Example 451, 3-methoxy-4-((2-(2′,3′,4′,5′-tetrahydro-[1,1′:4′,1″-terphenyl]-4-yl)thiazole)-5-sulfonamido)benzoic acid] | 100 to 500
12 | COc1cc(C(=O)O)ccc1NS(=O)(=O)c1cnc(-c2ccc(C3CCC(c4ccccc4)CC3)cc2)s1 (stereo not shown) [Example 452, 3-methoxy-4-((2-(4-(4-phenylcyclohexyl)phenyl)thiazole)-5-sulfonamido)benzoic acid] | 100 to 500
13 | COc1cc(C(=O)O)ccc1NS(=O)(=O)c1cnc(-c2ccc(C3CCC(C)(C)CC3)cc2)s1 [Example 453] | 100 to 500
14 | COc1cc(C(=O)O)ccc1NS(=O)(=O)c1csc(C2=CCC(C)(C)CC2)n1 [Example 454, 4-((2-(4,4-dimethylcyclohex-1-en-1-yl)thiazole)-4-sulfonamido)-3-methoxybenzoic acid] | 100 to 500
15 | COc1cc(C(=O)O)ccc1NS(=O)(=O)c1cnc(-c2ccc(C#CC3CCCC3)cc2)s1 [Example 455, 4-((2-(4-(cyclopentylethynyl)phenyl)thiazole)-5-sulfonamido)-3-methoxybenzoic acid] | 100 to 500
16 | COc1cc(C(=O)O)ccc1NS(=O)(=O)c1ccc2sc(-c3ccc(C4CCC(C)(C)CC4)cc3)nc2c1 [Example 456, 4-((2-(4-(4,4-dimethylcyclohexyl)phenyl)benzo[d]thiazole)-5-sulfonamido)-3-methoxybenzoic acid] | 1000 to 100000
17 | COc1cc(C(=O)O)ccc1NS(=O)(=O)c1csc(C2CCC(C)(C)CC2)n1 [Example 457, 4-((2-(4,4-dimethylcyclohexyl)thiazole)-4-sulfonamido)-3-methoxybenzoic acid] | 500 to 1000
18 | COc1cc(C(=O)O)ccc1NS(=O)(=O)N1Cc2nc(-c3ccc(C4CCC(C)(C)CC4)cc3)sc2C1 [Example 458] | 100 to 500
19 | COc1cc(C(=O)O)ccc1NS(=O)(=O)c1csc(-c2ccc3cc(C4=CCC(C)(C)CC4)ccc3c2)n1 [Example 459, 4-((2-(6-(4,4-dimethylcyclohex-1-en-1-yl)naphthalen-2-yl)thiazole)-4-sulfonamido)-3-methoxybenzoic acid] | 500 to 1000
20 | COc1cc(C(=O)O)ccc1NS(=O)(=O)N1Cc2nc(-c3ccc([C@H]4CC[C@H](C(F)(F)F)CC4)cc3)sc2C1 [Example 460] | 1000 to 100000
21 | COc1cc(C(=O)O)ccc1NS(=O)(=O)c1csc(-c2ccc3c(c2)OCCO3)n1 [Example 462] | 100 to 500
22 | COc1cc(C(=O)O)ccc1NS(=O)(=O)c1cccc(C#Cc2cccc(OC(F)(F)F)c2)n1 [Example 463, 3-methoxy-4-((6-((3-(trifluoromethoxy)phenyl)ethynyl)pyridine)-2-sulfonamido)benzoic acid] | 100 to 500
23 | COc1cc(C(=O)O)ccc1NS(=O)(=O)c1coc(-c2ccc(C3=CCC(C)(C)CC3)cc2)n1 [Example 464] | 100 to 500
24 | COc1cc(C(=O)O)ccc1NS(=O)(=O)c1coc(-c2ccc(C(C)(C)C)cc2)n1 [Example 465] | 100 to 500
25 | COc1cc(C(=O)O)ccc1NS(=O)(=O)c1coc(-c2ccc(C(C)C)cc2)n1 [Example 466, 4-((2-(4-isopropylphenyl)oxazole)-4-sulfonamido)-3-methoxybenzoic acid] | < 100

Row | Structure (SMILES) | IC50 [nM]
26 | COc1cc(C(=O)O)ccc1NS(=O)(=O)c1coc(-c2ccc(C3CCC(C(F)(F)F)CC3)cc2)n1 (stereo not shown) [Example 468] | < 100
27 | CCCCC[C@H]1CC[C@H](c2ccc(-c3cccc(S(=O)(=O)Nc4ccc(C(=O)O)cc4OC)c3F)cc2)CC1 [Example 470] | 100 to 500
28 | COc1cc(C(=O)O)ccc1NS(=O)(=O)c1cccc(-c2ccc(C3=CCC(C(F)(F)F)CC3)cc2)c1F (stereo not shown) [Example 471] | 100 to 500
29 | COc1cc(C(=O)O)ccc1NS(=O)(=O)c1cccc(-c2ccc(C3CCCCC3)cc2)c1 [Example 472] | 100 to 500
30 | COc1cc(C(=O)O)ccc1NS(=O)(=O)c1cccc(-c2ccc(C3CCC(C)(C)CC3)cc2)c1F [Example 473] | 100 to 500
31 | COc1cc(C(=O)O)ccc1NS(=O)(=O)c1cccc(-c2ccc([C@H]3CC[C@@H](C(F)(F)F)CC3)cc2)c1F [Example 474, 4-((2-fluoro-4′-((1s,4s)-4-(trifluoromethyl)cyclohexyl)-[1,1′-biphenyl])-3-sulfonamido)-3-methoxybenzoic acid] | 100 to 500
32 | COc1cc(C(=O)O)ccc1NS(=O)(=O)c1cccc(-c2ccc([C@H]3CC[C@H](C(F)(F)F)CC3)cc2)c1F [Example 475, 4-((2-fluoro-4′-((1r,4r)-4-(trifluoromethyl)cyclohexyl)-[1,1′-biphenyl])-3-sulfonamido)-3-methoxybenzoic acid] | < 100
33 | COc1cc(C(=O)O)ccc1NS(=O)(=O)c1cccc(-c2ccc(C3CCC(F)(F)CC3)cc2)c1F [Example 476] | 100 to 500
34 | COc1cc(C(=O)O)ccc1NS(=O)(=O)c1cccc(-c2ccc(C3=CCC(C(C)(C)C)CC3)cc2)c1F (stereo not shown) [Example 477, 4-((4″-(tert-butyl)-2-fluoro-2″,3″,4″,5″-tetrahydro-[1,1′:4′,1″-terphenyl])-3-sulfonamido)-3-methoxybenzoic acid] | 100 to 500
35 | COc1cc(C(=O)O)ccc1NS(=O)(=O)c1cccc(-c2ccc([C@H]3CC[C@H](C(C)(C)C)CC3)cc2)c1F [Example 478, 4-((4′-((1r,4r)-4-(tert-butyl)cyclohexyl)-2-fluoro-[1,1′-biphenyl])-3-sulfonamido)-3-methoxybenzoic acid] | 100 to 500
36 | COc1cc(C(=O)O)ccc1NS(=O)(=O)c1cccc(-c2ccc([C@H]3CC[C@@H](C(C)(C)C)CC3)cc2)c1F [Example 479, 4-((4′-((1s,4s)-4-(tert-butyl)cyclohexyl)-2-fluoro-[1,1′-biphenyl])-3-sulfonamido)-3-methoxybenzoic acid] | 100 to 500
37 | CC[C@H]1CC[C@@H](c2ccc(-c3nc(S(=O)(=O)Nc4ccc(C(=O)O)cc4OC)co3)cc2)CC1 [Example 481] | 100 to 500
38 | COc1cc(C(=O)O)c(F)cc1NS(=O)(=O)c1coc(-c2ccc(C3=CCC(C)(C)CC3)cc2)n1 [Example 482] | < 100
39 | COc1cc(C(=O)O)c(F)cc1NS(=O)(=O)c1coc(-c2ccc(C3=CCC(C(F)(F)F)CC3)cc2)n1 (stereo not shown) [Example 483] | < 100
40 | COc1cc(P(=O)(O)O)ccc1NS(=O)(=O)c1csc(-c2ccc(C3CCCCC3)cc2)n1 [Example 484, (4-((2-(4-cyclohexylphenyl)thiazole)-4-sulfonamido)-3-methoxyphenyl)phosphonic acid] | 1000 to 100000
41 | COc1cc(C(=O)O)ccc1NS(=O)(=O)c1csc(-c2ccc(C#CC3CCCCC3)cc2)n1 [Example 485] | 100 to 500
42 | COc1cc(C(=O)O)ccc1NS(=O)(=O)c1csc(-c2ccc(C#Cc3ccc(F)cc3)cc2)n1 [Example 486] | 500 to 1000
43 | CCC1CC=C(c2ccc(-c3nc(S(=O)(=O)Nc4ccc(C(=O)O)cc4OC)co3)cc2)CC1 (stereo not shown) [Example 487] | 100 to 500
44 | CC[C@H]1CC[C@H](c2ccc(-c3nc(S(=O)(=O)Nc4ccc(C(=O)O)cc4OC)co3)cc2)CC1 [Example 488] | 100 to 500
45 | CC[C@H]1CC[C@@H](c2ccc(-c3nc(S(=O)(=O)Nc4ccc(C(=O)O)cc4OC)co3)cc2)CC1 [Example 489] | 100 to 500
46 | COc1cc(C(=O)O)c(F)cc1NS(=O)(=O)c1coc(-c2ccc([C@H]3CC[C@H](C(F)(F)F)CC3)cc2)n1 [Example 492] | < 100
47 | COc1cc(C(=O)O)c(F)cc1NS(=O)(=O)c1coc(-c2ccc([C@H]3CC[C@@H](C(F)(F)F)CC3)cc2)n1 [Example 493] | < 100
48 | CCC1CC=C(c2ccc(-c3nc(S(=O)(=O)Nc4cc(F)c(C(=O)O)cc4OC)co3)cc2)CC1 (stereo not shown) [Example 494] | < 100
49 | CC[C@H]1CC[C@H](c2ccc(-c3nc(S(=O)(=O)Nc4cc(F)c(C(=O)O)cc4OC)co3)cc2)CC1 [Example 495] | < 100
